The subject of test [1] is male OF-1 “intruder” mice. In words: Intruder test (social withdrawal of intruder mice). In kind it is in vivo, mouse. The procedure:
Rufinamide, a Na-channel blocker and anti-epileptic agent, and carbamazepine, an anticonvulsant employed to treat bipolar disorder, were given to male OF-1 “intruder” in oral-doses of 1/3/10 mg/kg, 1 hr before the animals were confronted with an individually-housed, aggressive, male OF-1 resident mouse. […] This increase in social investigation (sociotropic effect) was accompanied by a decrease in the frequency and duration of defensive ambivalence probably through competitive inhibition. No signs of motor stimulation were detected.
The Intruder test duplicates a territorial encounter between a territory holder (aggressive male) and a subordinate “intruder” mouse. […] In this test the intruders receive the treatment whereas the residents remain untreated. (Dixon, A. K., Huber, C., Lowe, D. J. Clin. Psychiatry. 55 (9) Suppl B, 4-7 (1994)). For purposes of this study, rufinamide and carbamazepine were given orally to intruder mice 1 hr before being introduced singly to aggressive residents using doses of ⅓ and 10 mg/kg.
Over 60 ethological elements describing the social and non-social behaviour of mice based on the ethogram originally proposed by Grant and Mackintosh (Grant, E. C. Mackintosh, J. H. Behaviour 21: 246-259 (1963) ) and classified according to 9 behavioural categories (Dixon, A. K., Huber, C., Fisch, H. U. Adv. Study. Behaviour. 19: 171-204 (1990)) form the rodent ethogram as used in this test (FIG. 3).

Test [2] deals with Male Rj: Wistar (Han) rats. Briefly: Vogel Conflict Test in the rat. It counts as in vivo. Particulars: for number of shocks received (punished drinking), change vs vehicle control: 60 minutes before the test. Here is the method:
Rufinamide was dispersed in 0.5% methylcellulose (MC) in distilled water. Vehicle was dispersed in 0.5% MC in distilled water. Clobazam was dispersed in 0.5% MC in distilled water. Methylcellulose (Sigma), batch n° 62K0144, white powder. Distilled water (Laboratoire Aguettant, sterile water for injectable preparation). All substances were stored in a dry, dark, controlled access area and maintained at a controlled ambient temperature (+18° C.). The vehicle suspensions were stored at +4° C.
The vehicle, test substance and reference substance were administered in a volume of 5 ml/kg body weight.
Male Rj: Wistar (Han) rats, 171-205 g body weight range were used. They were supplied by Elevage Janvier, 53940 Le Genest-Saint-Isle, France.
Animals were delivered to the laboratory at least 5 days before the experiment, during which time they were acclimatized to the laboratory conditions. They were housed in groups of 5 in macrolon cages (41×25×14 cm) on wood litter (Litalabo—SPPS, 95100 Argenteuil, France) with free access to food (Code 113-SAFE, 91360 Epinay-sur-Orge, France) and water until
Results in grouped data tables are presented as means followed by a ± sign and the standard error of the mean (s.e.m.) on the basis of 15 animals per group and as percent change from control. The statistical tests used are indicated with the method. All statistical calculations were performed using commercial software (Microsoft Excel®, GB Stat version 6.5), and verified test by test according to Porsolt & Partners Pharmacology's standardized internal procedures. All differences were considered statistically significant when the null hypothesis could be rejected at the risk α=0.05 or less.
Rats were deprived of water for 48 hours and were then placed individually into a transparent Plexiglas enclosure (15×32×34 cm) with a floor consisting of stainless steel bars (0.4 cm) spaced 1 cm apart. The back wall of the enclosure was made of opaque Plexiglass thereby concealing the observer from the experimental animal. In the centre of the opposite wall, 5 cm above the floor, a metal water spout protruded into the cage and was connected to one pole of a shock generator (Apelex: Type 011346). The other pole of the shock generator was connected to the metal grid floor.
The rat was left to explore until it found the water spout. Then, every time it drank, it received a slight electric shock (1.7 mA, 1 sec.) 2 seconds after it started lapping. The number of shocks received (punished drinkings) was counted during a 3 minute period.
15 rats were studied per group. The test was performed blind.
rufinamide was evaluated at 25, 50, 100 and 200 mg/kg, administered p.o. 60 minutes before the test, and compared with a vehicle control group.
Clobazam (64 mg/kg), administered under the same experimental conditions, was used as reference substance.
Data were analyzed by comparing treated groups with vehicle control using unpaired Student's t tests.

Where [3] appears, read: 1/3/10 mg/kg oral, 1 hr before encounter.

Where only a bound is given, the exact number is not on record here.

In the case of `NC(=O)c1cn(Cc2c(F)cccc2F)nn1` [rufinamide, 1-(2,6-difluorobenzyl)-1H-1,2,3-triazole-4-carboxamide], in test [1] (1/3/10 mg/kg oral, 1 hr before 6 minute encounter), the “non-social (NS) behaviour, frequency” value was “significant, dose-related increase”. Further, in test [1] (1/3/10 mg/kg oral, 1 hr before 6 minute encounter, frequency and duration), the “social investigation (SI)” value is reported as “increased, albeit in a bell-shaped manner with only changes at 3 mg/kg attaining significance”. Besides, in test [1] (setting [3]), the “duration of defensive ambivalence (DA), arrested flight (AF) and escape” value is “significantly reduced but not uniformly”. Further, the “frequencies of arrested flight and escape” value in test [1] (setting [3]) is “only reduced significantly at 1 mg/kg”. For the same compound, the “time spent in non-social activities” value in test [1] (setting [3]) is listed as “only weakly following suit”. Further, the “total number of ethological elements performed in the 6 minute encounter” value in test [1] (setting [3]) is given as “increased in a dose-related manner”. In test [1] (at 3 and 10 mg/kg oral, 1 hr before encounter), the “time spent in static flight (SF) postures” value is “significant shortening”. Moreover, in test [1] (oral), the “dose which is sociotropic in the intruder test” value was determined as 3 mg/kg. Further, the “number of shocks received (punished drinking), change vs vehicle control” value is “+31%” in test [2] (25 mg/kg p.o., 3 minute period, 15 rats); “+40%” in test [2] (50 mg/kg p.o., p<0.05); “+55%” in test [2] (100 mg/kg p.o.); “+83%” in test [2] (200 mg/kg p.o.). Besides, the “dose-range of anxiolytic-like activity” value in test [2] (p.o.) lay in the range of 25 to 200 mg/kg. In addition, the “dose from which the increase in shocks received is significant” value in test [2] (p.o., p<0.05) is recorded as no less than 50 mg/kg.

(Values after patent publication US20090054414A1, “Rufinamide for the Treatment of Post-Traumatic Stress Disorder” (SYNOSIA THERAPEUTICS, priority 2007, published 2009).)
